Measured values reported in PubChem BioAssay (NCI).
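In this assay, cells in 96-well plates receive the compound at five concentrations for 48 hours. Endpoints are linearly interpolated between the surrounding concentrations. GI50: concentration for 50% inhibition of growth. TGI marks complete inhibition of growth.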

Columns and labels:
Test in all cases: DTP human tumour cell line panel, 48 h; in the data active = GI50 below about 0.43 µM; inactive = the rest
CCRF-CEM leukemia = tested on: CCRF-CEM leukemia
COLO 205 colon = tested on: COLO 205 colon
HCT-15 colon = tested on: HCT-15 colon
MALME-3M melanoma = tested on: MALME-3M melanoma
OVCAR-4 ovarian = tested on: OVCAR-4 ovarian
SF-295 CNS = tested on: SF-295 CNS
U251 CNS = tested on: U251 CNS
UACC-257 melanoma = tested on: UACC-257 melanoma
UO-31 renal = tested on: UO-31 renal

CCCCCCCCn1ccc2cc(NC(=O)Cn3cc(CN4CCCC4)nn3)ccc21
3.82 µM: TGI (COLO 205 colon)
3.57 µM: TGI (UACC-257 melanoma)
2.88 µM: TGI (UO-31 renal)
2.89 µM: TGI (MALME-3M melanoma)
18.1 µM: TGI (OVCAR-4 ovarian)
3.16 µM: TGI (U251 CNS)
3.72 µM: TGI (SF-295 CNS)
3.79 µM: TGI (HCT-15 colon)
> 100 µM: TGI (CCRF-CEM leukemia)
inactive: GI50 (CCRF-CEM leukemia) 2.9 µM | GI50 (COLO 205 colon) 1.99 µM | GI50 (HCT-15 colon) 1.84 µM | GI50 (MALME-3M melanoma) 1.52 µM | GI50 (OVCAR-4 ovarian) 4.97 µM | GI50 (SF-295 CNS) 1.87 µM | GI50 (U251 CNS) 1.7 µM | GI50 (UACC-257 melanoma) 1.86 µM | GI50 (UO-31 renal) 1.54 µM

O=c1cc(-c2ccccc2)oc2cc(OC/C(=N/O)c3ccccc3)ccc12
20 µM: TGI (U251 CNS)
> 50 µM: TGI (COLO 205 colon) | TGI (HCT-15 colon) | TGI (OVCAR-4 ovarian) | TGI (UACC-257 melanoma) | TGI (UO-31 renal)
inactive: GI50 (COLO 205 colon) > 50 µM | GI50 (HCT-15 colon) 22.2 µM | GI50 (OVCAR-4 ovarian) 30.5 µM | GI50 (SF-295 CNS) 6 µM | GI50 (U251 CNS) 10.1 µM | GI50 (UACC-257 melanoma) > 50 µM | GI50 (UO-31 renal) 18.4 µM
23.4 µM: TGI (SF-295 CNS)

Cc1cc(Cl)cc2c1NC(=O)C2(O)CC(=O)c1ccco1 (centres undefined)
57.3 µM: TGI (CCRF-CEM leukemia)
> 76.1 µM: TGI (MALME-3M melanoma)
23.9 µM: TGI (OVCAR-4 ovarian)
> 100 µM: TGI (COLO 205 colon) | TGI (HCT-15 colon) | TGI (SF-295 CNS) | TGI (U251 CNS) | TGI (UACC-257 melanoma) | TGI (UO-31 renal)

COc1ccc(-c2nc(-c3nc4ccc(Cl)cc4[nH]3)c3ccccn23)cc1
> 100 µM: TGI (CCRF-CEM leukemia)
4.74 µM: TGI (OVCAR-4 ovarian)
5.57 µM: TGI (MALME-3M melanoma)
inactive: GI50 (CCRF-CEM leukemia) 27.3 µM | GI50 (COLO 205 colon) 3.61 µM | GI50 (HCT-15 colon) 3.89 µM | GI50 (MALME-3M melanoma) 2.35 µM | GI50 (OVCAR-4 ovarian) 1.89 µM | GI50 (U251 CNS) 3.16 µM | GI50 (UACC-257 melanoma) 2.63 µM | GI50 (UO-31 renal) 1.74 µM
64.3 µM: TGI (HCT-15 colon)
11.3 µM: TGI (U251 CNS)
13.3 µM: TGI (COLO 205 colon)
4.11 µM: TGI (UO-31 renal)
8.5 µM: TGI (UACC-257 melanoma)

COc1cc(Nc2nc3ccccc3nc2-c2cccs2)cc(OC)c1OC
> 100 µM: TGI (CCRF-CEM leukemia) | TGI (HCT-15 colon) | TGI (MALME-3M melanoma) | TGI (SF-295 CNS) | TGI (UACC-257 melanoma)
> 10 µM: TGI (COLO 205 colon) | TGI (U251 CNS) | TGI (UO-31 renal)

O=C(O)CCNC1CCCCC1
> 100 µM: TGI (CCRF-CEM leukemia) | TGI (COLO 205 colon) | TGI (HCT-15 colon) | TGI (MALME-3M melanoma) | TGI (OVCAR-4 ovarian) | TGI (SF-295 CNS) | TGI (U251 CNS) | TGI (UACC-257 melanoma) | TGI (UO-31 renal)
inactive: GI50 (CCRF-CEM leukemia) > 100 µM | GI50 (COLO 205 colon) > 100 µM | GI50 (HCT-15 colon) > 100 µM | GI50 (MALME-3M melanoma) > 100 µM | GI50 (OVCAR-4 ovarian) > 100 µM | GI50 (SF-295 CNS) > 100 µM | GI50 (U251 CNS) > 100 µM | GI50 (UACC-257 melanoma) > 100 µM | GI50 (UO-31 renal) > 100 µM

Cc1ccc2c(c1)Sc1c(ccc3ccccc13)N2
inactive: GI50 (CCRF-CEM leukemia) 12.4 µM | GI50 (COLO 205 colon) 76.1 µM | GI50 (HCT-15 colon) 1.45 µM | GI50 (MALME-3M melanoma) > 100 µM | GI50 (OVCAR-4 ovarian) > 100 µM | GI50 (SF-295 CNS) 15.4 µM | GI50 (U251 CNS) 9.31 µM | GI50 (UACC-257 melanoma) > 100 µM | GI50 (UO-31 renal) 3.82 µM
> 100 µM: TGI (CCRF-CEM leukemia) | TGI (COLO 205 colon) | TGI (HCT-15 colon) | TGI (MALME-3M melanoma) | TGI (OVCAR-4 ovarian) | TGI (SF-295 CNS) | TGI (U251 CNS) | TGI (UACC-257 melanoma) | TGI (UO-31 renal)

O=C(CCc1nnc2sc(-c3ccc(Cl)cc3Cl)nn12)c1nc2ccccc2[nH]1
2.24 µM: TGI (UO-31 renal)
0.974 µM: TGI (CCRF-CEM leukemia)
2.65 µM: TGI (COLO 205 colon)
active: GI50 (CCRF-CEM leukemia) 0.265 µM
2.26 µM: TGI (U251 CNS)
2.77 µM: TGI (HCT-15 colon)
4.31 µM: TGI (UACC-257 melanoma)
3.52 µM: TGI (MALME-3M melanoma)
3.55 µM: TGI (OVCAR-4 ovarian)
5.56 µM: TGI (SF-295 CNS)
inactive: GI50 (COLO 205 colon) 1.09 µM | GI50 (HCT-15 colon) 0.452 µM | GI50 (MALME-3M melanoma) 0.821 µM | GI50 (OVCAR-4 ovarian) 0.639 µM | GI50 (SF-295 CNS) 1.65 µM | GI50 (U251 CNS) 0.932 µM | GI50 (UACC-257 melanoma) 1.83 µM | GI50 (UO-31 renal) 0.838 µM

CCOC(=O)/C(C#N)=C/c1[nH]c(C(=O)OCc2ccccc2)c(C)c1C
> 100 µM: TGI (CCRF-CEM leukemia) | TGI (COLO 205 colon) | TGI (HCT-15 colon) | TGI (MALME-3M melanoma) | TGI (OVCAR-4 ovarian) | TGI (SF-295 CNS) | TGI (U251 CNS) | TGI (UACC-257 melanoma) | TGI (UO-31 renal)

O=C(Nc1ccc(-c2nc(N3CCOCC3)c3cccn3n2)cc1)Nc1cccnc1
1.27 µM: TGI (OVCAR-4 ovarian)
0.546 µM: TGI (UO-31 renal)
40.8 µM: TGI (UACC-257 melanoma)
inactive: GI50 (UACC-257 melanoma) 0.428 µM
0.581 µM: TGI (SF-295 CNS)
0.471 µM: TGI (MALME-3M melanoma)
active: GI50 (CCRF-CEM leukemia) 0.0547 µM | GI50 (HCT-15 colon) 0.143 µM | GI50 (MALME-3M melanoma) 0.082 µM | GI50 (OVCAR-4 ovarian) 0.118 µM | GI50 (SF-295 CNS) 0.102 µM | GI50 (U251 CNS) 0.18 µM | GI50 (UO-31 renal) 0.0619 µM
> 100 µM: TGI (CCRF-CEM leukemia) | TGI (HCT-15 colon) | TGI (U251 CNS)

CC1CN1C(=O)NCCCCCCNC(=O)N1CC1C (centres undefined)
> 93 µM: TGI (CCRF-CEM leukemia)
> 100 µM: TGI (COLO 205 colon) | TGI (HCT-15 colon) | TGI (MALME-3M melanoma) | TGI (OVCAR-4 ovarian) | TGI (SF-295 CNS) | TGI (U251 CNS) | TGI (UACC-257 melanoma) | TGI (UO-31 renal)

O=C(CC1(O)C(=O)Nc2ccccc21)c1ccncc1 (centres undefined)
> 100 µM: TGI (CCRF-CEM leukemia) | TGI (COLO 205 colon) | TGI (HCT-15 colon) | TGI (OVCAR-4 ovarian) | TGI (SF-295 CNS) | TGI (U251 CNS) | TGI (UO-31 renal)

O=C1c2ccccc2C(=O)N1CCc1ncc[nH]1
> 100 µM: TGI (CCRF-CEM leukemia) | TGI (COLO 205 colon) | TGI (HCT-15 colon) | TGI (SF-295 CNS) | TGI (UACC-257 melanoma) | TGI (UO-31 renal)

CCCCCCCC[C@@H](O)CC(=O)N[C@@H](CC(N)=O)C(=O)N[C@@H](CCC(N)=O)C(=O)N[C@@H](CC(=O)c1cc(C)cc(O)c1C(=O)c1c(O)cccc1O)CC(C)C
2.33 µM: TGI (U251 CNS)
inactive: GI50 (HCT-15 colon) 2.25 µM | GI50 (MALME-3M melanoma) 0.667 µM | GI50 (OVCAR-4 ovarian) 2.07 µM | GI50 (SF-295 CNS) 1.97 µM | GI50 (UACC-257 melanoma) 0.45 µM | GI50 (UO-31 renal) 3.9 µM
24.7 µM: TGI (UO-31 renal)
active: GI50 (CCRF-CEM leukemia) 0.398 µM | GI50 (COLO 205 colon) 0.399 µM | GI50 (U251 CNS) 0.265 µM
4.68 µM: TGI (UACC-257 melanoma)
23.8 µM: TGI (HCT-15 colon)
7.53 µM: TGI (SF-295 CNS)
12 µM: TGI (COLO 205 colon)
> 100 µM: TGI (CCRF-CEM leukemia) | TGI (MALME-3M melanoma) | TGI (OVCAR-4 ovarian)

Cc1c(C(=O)C/C(=N/NC(=O)C[N+](C)(C)C)C(=O)Nc2ccc(Cl)cc2)[n+](=O)c2ccccc2n1O
> 100 µM: TGI (CCRF-CEM leukemia) | TGI (COLO 205 colon) | TGI (HCT-15 colon) | TGI (MALME-3M melanoma) | TGI (OVCAR-4 ovarian) | TGI (SF-295 CNS) | TGI (U251 CNS) | TGI (UACC-257 melanoma) | TGI (UO-31 renal)

C/C(CC(=O)Nc1cc(C)ccc1C)=N\NC(=O)c1ccncc1
> 100 µM: TGI (CCRF-CEM leukemia) | TGI (COLO 205 colon) | TGI (MALME-3M melanoma) | TGI (SF-295 CNS) | TGI (U251 CNS) | TGI (UACC-257 melanoma) | TGI (UO-31 renal)

O=C(O)c1nn(-c2ccccc2-c2n[nH]c(=O)[nH]c2=O)c(=O)[nH]c1=O
> 100 µM: TGI (CCRF-CEM leukemia) | TGI (COLO 205 colon) | TGI (HCT-15 colon) | TGI (MALME-3M melanoma) | TGI (OVCAR-4 ovarian) | TGI (SF-295 CNS) | TGI (U251 CNS) | TGI (UACC-257 melanoma) | TGI (UO-31 renal)
